Consider 8 molecules from ChEMBL document CHEMBL1130608, “Synthesis and anticancer evaluation of certain gamma-aryloxymethyl-alpha-methylene-gamma-phenyl-gamma-butyrolactones” (1998).

The test system of one test is COLO 205. The test can be described thus: In vitro anticancer activity against COLO 205 colon cancer cell line. The class given is functional. The conditions noted are these: Homo sapiens.
Another test relates to SW-620. The test can be described thus: In vitro anticancer activity against SW-620 colon cancer cell line. The class given is functional. The conditions noted are these: Homo sapiens.
A further test concerns Hs-578T. The experiment in a line: In vitro anticancer activity against Hs 578.T breast cancer cell line. The note with it: Homo sapiens. Format: functional.
The test system of another test is MDA-MB-435. The experiment in a line: In vitro anticancer activity against MDA-MB-435 breast cancer cell line. Format: functional. The note with it: Homo sapiens.
The next test relates to IGROV-1. The experiment in a line: In vitro anticancer activity against IGROV1 ovarian cancer cell line. Format: functional. The note with it: Homo sapiens.
Test [1] concerns HOP-62. The test can be described thus: In vitro anticancer activity against HOP-62 non-smallcell lung cancer cell line. Format: functional. The conditions noted are these: Homo sapiens.
For test [2], the system named is SR. The test can be described thus: In vitro anticancer activity against SR Leukemia cancer cell line. Format: functional. The conditions noted are these: Homo sapiens.
Test [3] relates to U-251. The experiment in a line: In vitro anticancer activity against U-251 CNS cancer cell line; Least sensitive cell. The class given is functional. The note with it: Homo sapiens.
The subject of a further test is ACHN. The test can be described thus: In vitro anticancer activity against ACHN renal cancer cell line. Format: functional. The conditions noted are these: Homo sapiens.
Test [4] relates to RPMI-8226. The test can be described thus: In vitro anticancer activity against RPMI-8226 Leukemia cancer cell line. The note with it: Homo sapiens. Format: functional.
The test system of another test is Malme-3M. The experiment in a line: In vitro anticancer activity against MALME-3M melanoma cancer cell line. The class given is functional. The note with it: Homo sapiens.
Test [5] has as its system NCI-H322M. The experiment in a line: In vitro anticancer activity against NCI-H322M non-small cell lung cancer cell line. The note with it: Homo sapiens. The class given is functional.
In test [6] the test system is LOX IMVI. The experiment in a line: In vitro anticancer activity against LOX IMVI melanoma cancer cell line; Most sensitive cell. The class given is functional. The note with it: Homo sapiens.
The next test deals with PC-3. The experiment in a line: In vitro anticancer activity against PC-3 prostate cancer cell line. Format: functional. The conditions noted are these: Homo sapiens.
Test [7] can be described thus: Ratio of the least sensitive cell to the most sensitive cell. The class given is functional.
The subject of test [8] is SNB-19. The test can be described thus: In vitro anticancer activity against SNB-19 CNS cancer cell line. The class given is functional. The conditions noted are these: Homo sapiens.
A further test deals with DU-145. The test can be described thus: In vitro anticancer activity against DU-145 prostate cancer cell line. Format: functional. The note with it: Homo sapiens.
In another test the test system is TK-10. The test can be described thus: In vitro anticancer activity against TK-10 renal cancer cell line. The conditions noted are these: Homo sapiens. Format: functional.
Test [9] has as its system LOX IMVI. The experiment in a line: In vitro anticancer activity against LOX IMVI melanoma cancer cell line. The class given is functional. The conditions noted are these: Homo sapiens.
The subject of test [10] is RPMI-8226. The test can be described thus: In vitro anticancer activity against RPMI-8226 Leukemia cancer cell line; Most sensitive cell. Format: functional. The conditions noted are these: Homo sapiens.
The test system of a further test is SK-OV-3. The experiment in a line: In vitro anticancer activity against SK-OV-3 ovarian cancer cell line. Format: functional. The note with it: Homo sapiens.
For test [11], the system named is U-251. The experiment in a line: In vitro anticancer activity against U-251 CNS cancer cell line. Format: functional. The note with it: Homo sapiens.
Test [12] relates to SNB-19. The experiment in a line: In vitro anticancer activity against SNB-19 CNS cancer cell line; Leaset sensitive cell. Format: functional. The conditions noted are these: Homo sapiens.
Test [13] deals with SNB-19. The test can be described thus: In vitro anticancer activity against SNB-19 CNS cancer cell line; Least sensitive cell. The conditions noted are these: Homo sapiens. Format: functional.
Test [14] concerns Panel leukemia (Carcinoma cell lines). The test can be described thus: Compound was evaluated for in vitro anticancer activity against leukemia cell lines. The class given is functional, cell-based.
In test [15] the test system is NCI-H322M. The experiment in a line: In vitro anticancer activity against NCI-H322M non-small cell lung cancer cell line; Least sensitive cell. The class given is functional. The note with it: Homo sapiens.
Test [16] has as its system HOP-62. The test can be described thus: In vitro anticancer activity against HOP-62 non-small cell lung cancer cell line. Format: functional. The note with it: Homo sapiens.
Test [17] has as its system RPMI-8226. The test can be described thus: In vitro anticancer activity against RPMI-8226 leukemia cancer cell line. The conditions noted are these: Homo sapiens. Format: functional.
Test [18] deals with SR. The test can be described thus: In vitro anticancer activity against SR leukemia cancer cell line; Most sensitive cell. Format: functional. The note with it: Homo sapiens.
Test [19] has as its system SR. The test can be described thus: In vitro anticancer activity against SR leukemia cancer cell line. The note with it: Homo sapiens. Format: functional.
The subject of test [20] is RPMI-8226. The test can be described thus: In vitro anticancer activity against RPMI-8226 leukemia cancer cell line; Most sensitive cell. The class given is functional. The note with it: Homo sapiens.
Test [21] has as its system HOP-62. The test can be described thus: In vitro anticancer activity against HOP-62 non-smallcell lung cancer cell line; Least sensitive cell. Format: functional. The note with it: Homo sapiens.

The term GI50 denotes the concentration that inhibits growth by half. Lower therefore signals more potent growth inhibition. Consider `C=C1CC(COc2ccccc2)(c2ccccc2)OC1=O` (stereo not given), for which the 50% growth inhibitory concentration (GI50) in the test on COLO 205 was 1740 nM; with SW-620, 1950 nM; in the test on Hs-578T, 11700 nM; with MDA-MB-435, 7410 nM; in the test with IGROV-1 it was 14100 nM; with HOP-62 [1], 14800 nM. The 50% growth inhibitory concentration (GI50) with SR [2] is 3240 nM; in the test with U-251 [3] it was 17400 nM; in the test with ACHN, 1740 nM; with RPMI-8226 [4] it was 1950 nM; with Malme-3M it was 10500 nM; with NCI-H322M [5] it was 15500 nM. The GI50 is 1510 nM with LOX IMVI [6]; 2140 nM in the test with PC-3; 11200 nM with SNB-19 [8]; 15100 nM in the test on DU-145; 3160 nM in the test with TK-10. The Ratio in [7] is on record as 1.06.
As for `C=C1CC(COc2ccc3cccc(O)c3n2)(c2ccccc2)OC1=O` (stereo not given), the concentration for 50% growth inhibition (GI50) with COLO 205 is 1780 nM; with SW-620, 1860 nM; in the test with Hs-578T it was 2290 nM; with MDA-MB-435, 2000 nM; in the test with LOX IMVI [9], 1290 nM; with IGROV-1, 1660 nM. Besides, the GI50 in the test with RPMI-8226 [10] was 14.1 nM; in the test with HOP-62 [1], 2140 nM; in the test on SR [2] it was 724 nM; in the test on ACHN, 1510 nM; in the test on SK-OV-3, 7080 nM; in the test with Malme-3M, 1700 nM. In addition, the 50% growth inhibitory concentration (GI50) in the test with NCI-H322M [5] is 8510 nM; in the test with U-251 [11], 1820 nM; in the test with PC-3, 3090 nM; in the test with DU-145, 11200 nM; with TK-10, 7080 nM; in the test with SNB-19 [12], 14500 nM. In addition, in [7], the Ratio is on record as 3.01.
Take `C=C1CC(COc2cccc3ccc(C)nc23)(c2ccccc2)OC1=O` (stereo not given): the GI50 in the test with COLO 205 was 2240 nM; with SW-620, 1480 nM; in the test on Hs-578T, 2000 nM; with MDA-MB-435, 3020 nM; in the test with LOX IMVI [9], 1450 nM; in the test on IGROV-1, 1780 nM. For the same molecule, the GI50 was 10 nM in the test with RPMI-8226 [10]; 3240 nM with HOP-62 [1]; 776 nM with SR [2]; 17000 nM in the test with SNB-19 [13]; 1580 nM in the test with ACHN; 6760 nM in the test on SK-OV-3. The 50% growth inhibitory concentration (GI50) is 1700 nM in the test on Malme-3M; 12000 nM in the test with NCI-H322M [5]; 1780 nM in the test with U-251 [11]; 2950 nM in the test on PC-3; 5620 nM in the test on DU-145; 2090 nM in the test with TK-10. The Ratio in test [7] is recorded as 3.23.
CARBOPLATIN: growth in test [14] was halved (GI50) at 107000 nM.
The same measure, in the same setting: under CISPLATIN stands 4470 nM.
For the molecule `C=C1CC(COc2cccc3ccccc23)(c2ccccc2)OC1=O` (stereo not given), the 50% growth inhibitory concentration (GI50) was 15800 nM in the test on NCI-H322M [15]; 3160 nM with COLO 205; 1550 nM with SW-620; 6920 nM with Hs-578T; 1740 nM with MDA-MB-435; 1350 nM in the test on LOX IMVI [9]. Moreover, the GI50 was 1620 nM in the test on IGROV-1; 15500 nM in the test on HOP-62 [16]; 2290 nM with RPMI-8226 [17]; 4370 nM with ACHN; 7410 nM in the test with SK-OV-3; 2880 nM in the test on Malme-3M. For the same molecule, the GI50 with U-251 [11] was 3550 nM; in the test on PC-3, 4070 nM; with SNB-19 [8], 7760 nM; in the test with SR [18], 229 nM; in the test on DU-145, 11200 nM; in the test on TK-10, 10500 nM. The Ratio in [7] is on record as 1.84.
Consider `C=C1CC(COc2cccc3cccnc23)(c2ccccc2)OC1=O` (stereo not given), for which the GI50 with NCI-H322M [15] was 14800 nM; with SR [19], 245 nM; with COLO 205 it was 1510 nM; in the test on SW-620, 1070 nM; in the test on Hs-578T, 1480 nM; in the test on MDA-MB-435 it was 2140 nM. Further, the GI50 in the test with LOX IMVI [9] was 1350 nM; with IGROV-1, 1550 nM; with HOP-62 [1], 5130 nM; with ACHN, 1620 nM; with SK-OV-3 it was 9330 nM; in the test with Malme-3M, 1510 nM. Further, the GI50 with U-251 [11] was 2140 nM; in the test with PC-3, 1580 nM; in the test with SNB-19 [8], 12000 nM; in the test on DU-145 it was 3800 nM; in the test on RPMI-8226 [20] it was 19.9 nM; in the test with TK-10, 1660 nM. In test [7], the Ratio stood at 2.87.
As to `C=C1CC(COc2ccc3ccccc3c2)(c2ccccc2)OC1=O` (stereo not given), the concentration for 50% growth inhibition (GI50) in the test on HOP-62 [21] was 18200 nM; with COLO 205, 1950 nM; in the test with SW-620 it was 1910 nM; with Hs-578T, 3890 nM; in the test on MDA-MB-435, 2880 nM; in the test with IGROV-1 it was 1550 nM. Further, the concentration for 50% growth inhibition (GI50) is 3310 nM in the test on SR [2]; 4370 nM in the test on ACHN; 2240 nM in the test with RPMI-8226 [4]; 7590 nM in the test with SK-OV-3; 3390 nM in the test with Malme-3M; 12900 nM with NCI-H322M [5]. Besides, the GI50 is 1450 nM in the test with LOX IMVI [6]; 2820 nM in the test on U-251 [11]; 6460 nM in the test with PC-3; 10500 nM with SNB-19 [8]; 12000 nM with DU-145; 2880 nM in the test on TK-10. In addition, in [7], the Ratio stood at 1.1.
